Like-named read-outs stand apart in the source and are kept apart here. Blank lines part the entries; values can stand above or below the molecule they belong to.
Key:
[1] = target: POP enzyme; settings: cited from earlier work
[2] = target: xanthine oxidase (XO) (Homo sapiens, UniProt P47989); experiment: XO enzyme inhibition, spectrophotometric (uric acid formation at 295 nm); format: biochemical
Description: (§1) All plant samples were macerated using 80% ethanol at room temperature for 5 days. Subsequently, filter paper was used to filter the samples, and the remaining filtrate was evaporated to dryness in a rotary evaporator (Büchi, Flawil, Switzerland). The extracts were weighed and dissolved in dimethyl sulfoxide (DMSO) to reach a concentration of 2 mg/mL, which was used in the in vitro experiments.
(§2) The enzyme inhibition assays conducted in this study included elastase, collagenase, hyaluronidase, XO, and prolyl POP inhibition and were performed using an ELISA microplate reader (Spectramax i3x microplate reader with Softmax® Pro Software for Windows 10; Molecular Devices, San Jose, USA).

[3] = system: XO; settings: cited from earlier work
[4] = target: hyaluronidase; experiment: Hyaluronidase enzyme inhibition assay; format: biochemical
Description: as §1, §2

[5] = Nitric oxide radical-scavenging activity
Description: as §1
The determination of the superoxide radical (O2^•−)-scavenging effect was conducted using the method described by Duh et al.. To assess the nitric oxide (NO)-scavenging effect, the method of Sreejayan and Rao was utilised with some modifications.

[6] = parameters: method as in earlier work; settings: cited from earlier work
[7] = target: collagenase; experiment: Collagenase inhibition, modified spectrophotometric method; format: biochemical
Description: as §1
The enzyme inhibition assays conducted in this study included elastase, collagenase, hyaluronidase, XO, and prolyl POP inhibition and were performed using an ELISA microplate reader (Spectramax i3x microplate reader with Softmax® Pro Software for Windows 10; Molecular Devices, San Jose, USA). Elastase inhibition by the extracts was assessed using a modified spectrophotometric method based on Kraunsoe et al. (1996) and Lee et al. (2009). Collagenase inhibition was evaluated using the modified spectrophotometric method by Barrantes and Guinea 2003 [67], which was originally developed by Wart and Steinbrink (1981). The LOX inhibitory activities of the extracts were determined following the method of Chung et al. (2009), with minor modifications. XO inhibition was measured spectrophotometrically by monitoring the absorbance at 295 nm from uric acid formed during an enzymatic reaction. […]

[8] = system: LOX; parameters: method as in PMID 27316769; settings: dose-dependent; read-out: LOX inhibition IC50; cited from earlier work

Chain of xanthine oxidase (XO) (P47989 whole entry, species assumed): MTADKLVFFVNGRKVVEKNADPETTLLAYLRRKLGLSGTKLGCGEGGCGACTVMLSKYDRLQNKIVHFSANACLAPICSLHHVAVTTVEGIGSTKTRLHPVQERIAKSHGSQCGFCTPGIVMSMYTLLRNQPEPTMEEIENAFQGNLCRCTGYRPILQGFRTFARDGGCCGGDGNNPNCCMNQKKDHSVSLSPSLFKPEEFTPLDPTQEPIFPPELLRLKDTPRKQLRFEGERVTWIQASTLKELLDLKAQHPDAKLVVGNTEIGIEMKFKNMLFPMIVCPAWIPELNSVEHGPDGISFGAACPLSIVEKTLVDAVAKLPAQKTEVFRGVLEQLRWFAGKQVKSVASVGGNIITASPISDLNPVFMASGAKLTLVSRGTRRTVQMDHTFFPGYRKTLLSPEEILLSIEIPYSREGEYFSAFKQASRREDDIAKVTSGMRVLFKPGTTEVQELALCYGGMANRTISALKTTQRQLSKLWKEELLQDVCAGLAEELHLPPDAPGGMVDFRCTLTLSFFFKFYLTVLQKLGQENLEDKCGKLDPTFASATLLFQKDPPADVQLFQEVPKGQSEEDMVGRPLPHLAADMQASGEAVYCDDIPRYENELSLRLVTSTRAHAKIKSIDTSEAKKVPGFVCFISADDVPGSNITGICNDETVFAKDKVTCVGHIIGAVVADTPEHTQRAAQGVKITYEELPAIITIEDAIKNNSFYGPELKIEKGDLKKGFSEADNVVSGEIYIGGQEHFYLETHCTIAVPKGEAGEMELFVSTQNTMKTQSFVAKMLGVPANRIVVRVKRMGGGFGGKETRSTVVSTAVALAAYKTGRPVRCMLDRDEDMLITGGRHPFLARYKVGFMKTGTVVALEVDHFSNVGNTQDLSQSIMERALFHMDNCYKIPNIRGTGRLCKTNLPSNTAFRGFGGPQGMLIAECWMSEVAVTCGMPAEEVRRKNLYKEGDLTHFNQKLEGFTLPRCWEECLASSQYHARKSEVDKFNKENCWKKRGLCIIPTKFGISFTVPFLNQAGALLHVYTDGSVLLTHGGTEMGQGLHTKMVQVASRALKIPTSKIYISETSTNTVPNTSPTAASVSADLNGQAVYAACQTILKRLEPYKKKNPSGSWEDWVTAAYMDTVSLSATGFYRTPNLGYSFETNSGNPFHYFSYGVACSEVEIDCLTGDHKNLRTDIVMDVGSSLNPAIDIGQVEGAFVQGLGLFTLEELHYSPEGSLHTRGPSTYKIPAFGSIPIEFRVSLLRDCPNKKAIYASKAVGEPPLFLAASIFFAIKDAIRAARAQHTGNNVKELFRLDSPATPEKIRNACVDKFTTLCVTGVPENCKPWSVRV

Molecule: COc1ccc2cc3[n+](cc2c1OC)CCc1cc2c(cc1-3)OCO2 [berberine]
IC50 ([1]; read-out: POP inhibition IC50): 142 ± 21.5 µM

IC50 [2]: 130 µM
Molecule: O=C1C[C@@H](c2ccc(O)cc2)Oc2cc(O)cc(O)c21 [naringenin]
inhibitory activity against XO (in words) [3]: moderate inhibitory activity
IC50 ([3]; read-out: XO inhibition IC50): 4.57 µM
inhibitory activity against the POP enzyme (in words) [1]: did not exhibit inhibitory activity

Hyaluronidase inhibition IC50 [4]: 2.31 ± 0.73 µg/mL
Hyaluronidase Enzyme Inhibition (% Inhibition ± S.D.), reference ([4]; References (1 mg/mL)): 92.51 ± 3.53%
Molecule: tannic acid

IC50 [2]: 49.8 µM
Molecule: O=c1cc(-c2ccc(O)c(O)c2)oc2cc(O)cc(O)c12 [luteolin]
IC50 ([3]; flavonoids isolated from Blumea balsamifera L., read-out: XO inhibitory activity IC50): 2.38 ± 0.01 µM
IC50 ([3]; read-out: XO inhibition IC50): 0.96 µM
POP inhibition IC50 [1]: 0.17 ppm

Molecule: Oc1ncnc2[nH]ncc12 [allopurinol, reference compound]
inhibition at 25 µg/mL ([2]; read-out: XO Enzyme Inhibition (% Inhibition ± S.D.)): 91.6 ± 1.3%
inhibition at 500 µg/mL ([2]; read-out: XO Enzyme Inhibition (% Inhibition ± S.D.), reference): 91.6 ± 1.3%
IC50 ([3]; read-out: XO inhibition IC50): 4.05 µM

Nitric oxide radical-scavenging IC50 [5]: 25.28 ± 2.98 µg/mL
Molecule: O=C1O[C@H]([C@@H](O)CO)C(O)=C1O [Vitamin C]
Nitric Oxide Radical-Scavenging Activity (% Inhibition ± S.D.), reference ([5]; Vitamin C (1 mg/mL)): 92.72 ± 0.10%

Molecule: O=c1c(O)c(-c2ccc(O)c(O)c2)oc2cc(O)cc(O)c12 [quercetin]
NO radical-scavenging activity IC50 [6]: 160 ± 10 µg/mL

IC50 [2]: 40.1 µM
Molecule: O=c1cc(-c2ccc(O)cc2)oc2cc(O)cc(O)c12 [apigenin]
IC50 ([3]; competitive inhibitor, read-out: XO inhibition IC50): 3.57 µM

Molecule: c1cnc2c(c1)ccc1cccnc12 [1,10-phenanthroline]
Collagenase inhibition IC50 [7]: 27.95 ± 0.3 µg/mL
Collagenase Enzyme Inhibition (% Inhibition ± S.D.), reference ([7]; References (1 mg/mL)): 87.39 ± 2.85%

Molecule: Oc1ccc2c(c1)OCO2 [sesamol]
IC50 [8]: 51.8 µM
